According to patent US6448252B1, “Treatment of equine protozoal myeloencephalitis” (IDEXX Pharmaceuticals, Inc., priority 1996, dated 2002):

Assays:
[1] = test system: Plasmodium berghei yoelii; details: rodent malaria; cited from earlier work
Sarcocystis neurona = details: EPM in equines; sulfadiazine as the sulfonamide given with pyrimethamine
Procedure: The amounts of each component are based on a liquid suspension having a total volume of about 1 liter. As mentioned above, a useful dosage, e.g., for a 1,000 pound horse infected with Sarcocystis neurona (as evidenced by the presence of the protozoan in a sample from the subject's cerebrospinal fluid) is about 30 mL of the suspension, once a day, given on an empty stomach in the morning.

[2] = horses, oral, 1 mg pyrimethamine/kg once a day for 10 days; cited from earlier work

| Compound | causal prophylactic activity [1] | rate of efficacy (Sarcocystis neurona) | toxicological problem [2] |
| --- | --- | --- | --- |
| COc1cc(NC(C)CCCN)c2ncccc2c1 (stereo not shown) [Primaquine diphosphate] | causal prophylactic activity | – | – |
| Nc1ccc(S(=O)(=O)Nc2ncccn2)cc1 [sulfadiazine] | causal prophylactic activity | > 70% | – |
| CCc1nc(N)nc(N)c1-c1ccc(Cl)cc1 [pyrimethamine] | – | – | does not present a serious toxicological problem |
